The values that follow come from EP4755885A1 (Shanghai Hansoh Biomedical Co., Ltd., priority 2023, dated 2025).

Molecules are shown by their SMILES.

Data set [1] is described as follows: Pharmacokinetic evaluation in beagles, oral administration. Format: in vivo. The conditions noted are these: male, beagle, dog, po, p.o. 2 mg/kg, plasma. In a few lines: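 Male beagles (3) fasted overnight received 2 mg/kg orally as a 0.4 mg/mL solution in 10% PEG400/10% PG/80% glycine buffer, pH 9.0-9.5. Plasma (EDTA-K2) sampled predose and 0.25-24 h; acetonitrile precipitation, then LC/MS/MS quantification.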

Data set [2] addresses T1, human GLP-1 receptor (Homo sapiens, UniProt P43220).
T1 construct: expressed in transfected cells
Description: cAMP production in cell line stably transformed with human GLP1 receptor, 30 min co-incubation (HTRF). The conditions noted are these: CHO-K1/GLP-1R/CRE-luc cells, stimulation for 0.5 h, read-out: EC50. Format: cell-based. Here is the method: The purpose of this assay example is to test the ability of the compound to activate the human GLP-1 receptor on cell surface. The EC50 for stimulated cAMP production after activation characterizes the ability of the compound to activate the human GLP-1 receptor.
In this experiment, the compound and cells were co-incubated for 30 min.
Frozen cell line CHO-K1/GLP-1R/CRE-luc stably transformed with human GLP1 receptor was removed from a liquid nitrogen tank, and was placed in a 37°C water bath for rapid thawing. The cells were resuspended in DMEM/F12 medium, and after centrifugation, were washed once. The cells were resuspended in an experimental buffer, i.e., DMEM/F12 medium containing 0.1% casein. After centrifugation, cell density was adjusted using the experimental buffer. The cells were plated onto a 384-well plate at a density of 1500 cells/5 µL/well. Then, each well was added with 2.5 µL of IBMX working solution prepared with the buffer, the final concentration of IBMX being 0.5 mM, and 2.5 µL of a serially diluted compound sample (starting from […], 3-fold dilution, 12 concentrations). The plate was centrifuged at 1000 rpm for 1 min, and was stood for incubation at 37°C for 0.5 h. Determination was performed using the Cisbio cAMP - Gs Dynamic kit. cAMP-d2 and anti-cAMP-Eu3+-Cryptate were diluted 18-fold and 20-fold respectively with cAMP Lysis & Detection Buffer, and were respectively mixed homogeneously. Each well was added with 5 µL of diluted cAMP-d2 solution, and the plate was centrifuged at 1000 rpm for 1 min, and shaken for 30 seconds for homogeneous mixing. Then, each well was added with 5 µL of diluted anti-cAMP-Eu3+-Cryptate solution, and the plate was centrifuged at 1000 rpm for 1 min and was incubated in the dark at room temperature for 1 h. HTRF signals were read using the Biotek Synergy H1 microplate reader, the excitation wavelength being 320 nm and the emission wavelengths being 620 nm and 665 nm.
The signal-to-signal ratio was calculated (665 nm/620 nm * 10,000). Nonlinear fitting between the signal-to-signal ratio and the sample concentration was performed in GraphPad Prism 10 using a four-parameter equation to obtain the EC50 value.
(cAMP levels reflect the balance of adenylyl cyclase and phosphodiesterase activity.)

In data set [3] the target is T1, human GLP-1 receptor. In words: cAMP production in cell line stably transformed with human GLP1 receptor, 2 h co-incubation (HTRF). Format: cell-based. The conditions noted are these: CHO-K1/GLP-1R/CRE-luc cells, stimulation for 2 h, read-out: EC50. An outline of the steps:
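CHO-K1/GLP-1R/CRE-luc cells (human GLP-1R) incubated 2 h at 37 °C with compound (12-point 3-fold series) and 0.5 mM IBMX in DMEM/F12 with 0.1% casein. cAMP measured by HTRF (665/620 nm ratio); EC50 from four-parameter fit.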

T1 sequence (P43220 24-463): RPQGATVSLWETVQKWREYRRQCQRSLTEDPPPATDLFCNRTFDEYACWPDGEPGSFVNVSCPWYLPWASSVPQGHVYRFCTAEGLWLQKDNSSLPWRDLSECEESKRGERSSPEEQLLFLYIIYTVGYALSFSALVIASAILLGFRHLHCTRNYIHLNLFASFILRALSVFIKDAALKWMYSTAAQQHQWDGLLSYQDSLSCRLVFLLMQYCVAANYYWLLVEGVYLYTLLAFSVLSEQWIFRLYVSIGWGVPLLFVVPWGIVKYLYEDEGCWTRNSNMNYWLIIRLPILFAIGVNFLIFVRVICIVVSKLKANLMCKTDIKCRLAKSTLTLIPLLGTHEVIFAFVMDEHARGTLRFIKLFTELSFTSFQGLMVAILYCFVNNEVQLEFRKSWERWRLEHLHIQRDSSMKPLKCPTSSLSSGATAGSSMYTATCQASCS

As usually defined, the AUC(0-inf) is total exposure, with the tail of the curve extrapolated. Low values mean low exposure, high ones high exposure. Broadly, the half-life is the time needed for the level to fall by half in the phase considered. The AUC(0-t) is exposure summed from dosing to a finite time, without extrapolation to infinity. Broadly, the Cmax is the highest concentration seen after dosing. As usually defined, the Tmax is the time at which the peak concentration occurs. The EC50 is the concentration at which the effect is half-maximal. As to `[2H]C([2H])([2H])n1nc2c3c(c(-n4ccn(-c5c6c(nn5-c5cc(C)c(F)c(C)c5)CCN(C(=O)c5cc7cc([C@H]8CCOC(C)(C)C8)ccc7n5[C@@]5(c7noc(=O)[nH]7)C[C@@H]5COC5CC5)[C@H]6C)c4=O)ccc31)OCCC2` [Example 285, 3-((1S,2S)-2-(cyclopropyloxymethyl)-1-(5-((S)-2,2-dimethyltetrahydro-2H-pyran-4-yl)-2-((S)-2-(4-fluoro-3,5-dimethylphenyl)-4-methyl-3-(3-(2-(methyl-d3)-2,7,8,9-tetrahydrooxahepta[4,3,2-cd]indazol-5-yl)-2-carbonyl-2,3-dibydro-1H-imidazol-1-yl)-4,5,6,7-tetrahydro-2H-pyrazolo[4,3-c]pyridine-5-carbonyl)-1H-indol-1-yl)cyclopropyl)-1,2,4-oxadiazol-5(4H)-one], in data set [1], the AUC(0-inf) was 19400 ng·h/mL and the half-life is 4.1 h. Also, the area under the curve AUC(0-t) in data set [1] (read-out: AUC 0-t) worked out at 19200 ng·h/mL. The Cmax in data set [1] (read-out: Cmax) was determined as 3600 ng/mL. Also, the MRT inf in data set [1] (read-out: MRT 0-∞) came out at 5.3 h. Besides, the Tmax in data set [1] (read-out: tmax) was 1.5 h. The EC50 in data set [2] was found to be 710 pM. Also, the EC50 in data set [3] worked out at 90 pM.
